Source: patent US11198673B2, “Therapeutic compounds and compositions” (eXIthera Pharmaceuticals, Inc., priority 2014, dated 2021)
pIC50: −log10 of the molar value.

Biological target: T1, Thrombin (Homo sapiens, UniProt P00734)
T1 construct: Thrombin; 0.2 μM in 50% glycerol (7.34 μg/mL)
Assay: Dose response assay for protease inhibitors: thrombin (FXIa fold selectivity)
Type: biochemical
Conditions: fold selectivity for FXIa over thrombin
Experimental: (§1) • Assay buffer: 20 mM Hepes, pH 7.4; 150 mM NaCl; 0.02% Tween 20 • Compounds: 10 mM stocks in DMSO • Substrate: 20 mM Glp-Pro-Arg-AMC, 25 mg/2.3 mL H2O (store at +4° C.) [Factor XIa, thrombin, and trypsin] • 20 mM Pro-Phe-Arg-AMC (Bachem I-1295), 25 mg/2.2 mL H2O (store at +4° C.) [Factor Xa] • Enzyme: Factor XIa; 0.25 μM in 50% glycerol (20 μg/mL) • Trypsin; 0.2 μM in 50% glycerol (4.8 μg/mL) • Thrombin; 0.2 μM in 50% glycerol (7.34 μg/mL) • Factor Xa; 0.2 μM in 50% glycerol (9.2 μg/mL) • These stocks are aliquoted ([…]) and stored at −20° C. Methods: • 1. Dilute the substrate to 100 μM in assay buffer (30 μL/6 mL). The enzyme is diluted to 0.5 nM just prior to use (12 μL/6 mL for Factor XIa; 15 μL/6 mL for all of the rest.) • 2. Pipette 50 μL of substrate into each well of the 96 well (12×8) microtiter plate. (Column 1 is used as the 100% activity control and receives no compound, and Column 12 is the blank and receives no enzyme.) Add an additional 46 μL to column 2. • 3. Pipette 4 μL of each compound into the appropriate well in column 2 of the plate (unknowns assayed in triplicate, standard assayed in duplicate). The final compound concentration will be 1/50th of the stock. • 4. Serially two-fold dilute the compound by mixing the sample in column 2, removing 50 μL to the next well (column 3), mix and remove to column 4, etc. until column 11. After mixing column 11, remove 50 μL and discard. • 5. Pipette 50 μL of buffer into column 12. Initiate the reaction by adding 50 μL of enzyme solution to each well of columns 1-11 as rapidly as possible. • 6. Read the plate in a spectrophotometer (SpectraMax) at 30° C., wherein each well is measured every 60 s for 30 min. For Factor Xa assays, each well is measured every 1 min for a total of 60 min. • 7. For Factor XIa assays, the compounds are assayed, in duplicate, at 3 different starting concentrations, 20, 2, and 0.2 μM; 1:10, 1:100, and 1:1000 dil'n of 10 mM stock. All data sets are combined for graphing and data fitting. • 8. Data can be used both for estimation of IC50 and for estimation of Kon.

Row | SMILES | FXIa Fold Selectivity Thrombin
1 | CCCC(CCC)NC(=O)N1C(=O)[C@H](Cc2ccnc(N)c2)[C@H]1C(=O)O [Example 52] | I (“I” indicates >1000)
2 | CCOC(=O)[C@@H]1C(Cc2ccnc(Cl)c2)C(=O)N1C(=O)N[C@H](C)c1ccc2c(c1)OC(F)(F)O2 (stereo partly shown) [Example 132] | G (“G” indicates 1-500)
3 | CNC(=O)N1C(=O)[C@H](Cc2ccnc(N)c2)[C@H]1C(=O)O [Example 55] | G (“G” indicates 1-500)
4 | CS(=O)(=O)[C@@H]1[C@@H](Cc2ccnc(N)c2)C(=O)N1C(=O)NC(c1ccccc1)c1ccccc1 [Example 35] | G (“G” indicates 1-500)
5 | Nc1cc(C[C@H]2C(=O)N(C(=O)N[C@@H](c3ccccc3)C(F)(F)F)[C@@H]2C(=O)O)ccn1 [Example 44] | I (“I” indicates >1000)

Second part, the compound after the results:

Row | FXIa Fold Selectivity Thrombin | SMILES
6 | I (“I” indicates >1000) | C[C@@H](NC(=O)N1C(=O)[C@H](Cc2ccnc(N)c2)[C@H]1C(=O)O)c1cccc(OC(F)(F)F)c1 [Example 49]
7 | I (“I” indicates >1000) | CC(NC(=O)N1C(=O)[C@H](Cc2ccnc(N)c2)[C@H]1C(=O)O)c1ccc(OC(F)(F)F)cc1 (stereo partly shown) [Example 47]
8 | G (“G” indicates 1-500) | CCO[C@@H]1[C@@H](Cc2ccnc(N)c2)C(=O)N1C(=O)NC(c1ccccc1)c1ccccc1 [Example 33]

Tested on: Trypsin
Assay: Dose response assay for protease inhibitors: trypsin (FXIa fold selectivity)
Type: biochemical
Conditions: fold selectivity for FXIa over trypsin
Experimental: as §1

Row | SMILES | FXIa Fold Selectivity Trypsin
9 | CCCC(CCC)NC(=O)N1C(=O)[C@H](Cc2ccnc(N)c2)[C@H]1C(=O)O [Example 52] | G (“G” indicates 1-500)
10 | CCOC(=O)[C@@H]1C(Cc2ccnc(Cl)c2)C(=O)N1C(=O)N[C@H](C)c1ccc2c(c1)OC(F)(F)O2 (stereo partly shown) [Example 132] | G (“G” indicates 1-500)
11 | CNC(=O)N1C(=O)[C@H](Cc2ccnc(N)c2)[C@H]1C(=O)O [Example 55] | G (“G” indicates 1-500)
12 | C[C@@H](NC(=O)N1C(=O)[C@H](Cc2ccnc(N)c2)[C@H]1C(=O)O)c1cccc(OC(F)(F)F)c1 [Example 49] | G (“G” indicates 1-500)
13 | CC(NC(=O)N1C(=O)[C@H](Cc2ccnc(N)c2)[C@H]1C(=O)O)c1ccc(OC(F)(F)F)cc1 (stereo partly shown) [Example 47] | H (“H” indicates 500-1000)
14 | CS(=O)(=O)[C@@H]1[C@@H](Cc2ccnc(N)c2)C(=O)N1C(=O)NC(c1ccccc1)c1ccccc1 [Example 35] | G (“G” indicates 1-500)
15 | Nc1cc(C[C@H]2C(=O)N(C(=O)N[C@@H](c3ccccc3)C(F)(F)F)[C@@H]2C(=O)O)ccn1 [Example 44] | G (“G” indicates 1-500)
16 | CCO[C@@H]1[C@@H](Cc2ccnc(N)c2)C(=O)N1C(=O)NC(c1ccccc1)c1ccccc1 [Example 33] | G (“G” indicates 1-500)

Biological target: T2, Factor Xa (Homo sapiens, UniProt P00742)
T2 construct: Factor Xa; 0.2 μM in 50% glycerol (9.2 μg/mL)
T2 sequence (P00742 235-488 limits assumed): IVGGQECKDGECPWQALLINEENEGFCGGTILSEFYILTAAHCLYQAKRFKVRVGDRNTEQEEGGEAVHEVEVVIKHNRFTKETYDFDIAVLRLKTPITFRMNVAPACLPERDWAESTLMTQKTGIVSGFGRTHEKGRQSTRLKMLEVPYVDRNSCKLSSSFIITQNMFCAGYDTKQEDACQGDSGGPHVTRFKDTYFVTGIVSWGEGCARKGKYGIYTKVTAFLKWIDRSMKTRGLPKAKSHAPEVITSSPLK
T2 sequence (P00742 41-179 partner limits assumed): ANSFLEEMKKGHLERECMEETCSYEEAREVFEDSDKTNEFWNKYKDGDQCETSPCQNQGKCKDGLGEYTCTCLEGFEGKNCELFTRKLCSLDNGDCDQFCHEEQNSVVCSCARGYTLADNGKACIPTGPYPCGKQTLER
Assay: Dose response assay for protease inhibitors: Factor Xa (FXIa fold selectivity)
Type: biochemical
Conditions: fold selectivity for FXIa over Factor Xa
Experimental: as §1

Row | SMILES | FXIa Fold Selectivity FXa
17 | CCCC(CCC)NC(=O)N1C(=O)[C@H](Cc2ccnc(N)c2)[C@H]1C(=O)O [Example 52] | H (“H” indicates 500-1000)
18 | CCOC(=O)[C@@H]1C(Cc2ccnc(Cl)c2)C(=O)N1C(=O)N[C@H](C)c1ccc2c(c1)OC(F)(F)O2 (stereo partly shown) [Example 132] | G (“G” indicates 1-500)
19 | CNC(=O)N1C(=O)[C@H](Cc2ccnc(N)c2)[C@H]1C(=O)O [Example 55] | G (“G” indicates 1-500)
20 | CS(=O)(=O)[C@@H]1[C@@H](Cc2ccnc(N)c2)C(=O)N1C(=O)NC(c1ccccc1)c1ccccc1 [Example 35] | G (“G” indicates 1-500)
21 | Nc1cc(C[C@H]2C(=O)N(C(=O)N[C@@H](c3ccccc3)C(F)(F)F)[C@@H]2C(=O)O)ccn1 [Example 44] | I (“I” indicates >1000)

Further lines, results first:

Row | FXIa Fold Selectivity FXa | SMILES
22 | H (“H” indicates 500-1000) | C[C@@H](NC(=O)N1C(=O)[C@H](Cc2ccnc(N)c2)[C@H]1C(=O)O)c1cccc(OC(F)(F)F)c1 [Example 49]
23 | I (“I” indicates >1000) | CC(NC(=O)N1C(=O)[C@H](Cc2ccnc(N)c2)[C@H]1C(=O)O)c1ccc(OC(F)(F)F)cc1 (stereo partly shown) [Example 47]
24 | F (“F” indicates <1) | CCO[C@@H]1[C@@H](Cc2ccnc(N)c2)C(=O)N1C(=O)NC(c1ccccc1)c1ccccc1 [Example 33]

Biological target: T3, human Factor XIa (Homo sapiens, UniProt P03951)
T3 construct: Enzyme: Factor XIa; 0.25 μM in 50% glycerol (20 μg/mL)
T3 sequence (P03951 388-625 limits assumed): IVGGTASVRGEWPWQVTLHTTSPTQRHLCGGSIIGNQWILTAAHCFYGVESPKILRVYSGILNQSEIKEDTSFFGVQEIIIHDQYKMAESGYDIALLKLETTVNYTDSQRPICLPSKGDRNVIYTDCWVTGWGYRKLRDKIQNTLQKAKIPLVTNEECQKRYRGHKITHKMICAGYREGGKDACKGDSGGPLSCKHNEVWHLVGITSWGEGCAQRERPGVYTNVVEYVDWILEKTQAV
T3 sequence (P03951 19-387 partner limits assumed): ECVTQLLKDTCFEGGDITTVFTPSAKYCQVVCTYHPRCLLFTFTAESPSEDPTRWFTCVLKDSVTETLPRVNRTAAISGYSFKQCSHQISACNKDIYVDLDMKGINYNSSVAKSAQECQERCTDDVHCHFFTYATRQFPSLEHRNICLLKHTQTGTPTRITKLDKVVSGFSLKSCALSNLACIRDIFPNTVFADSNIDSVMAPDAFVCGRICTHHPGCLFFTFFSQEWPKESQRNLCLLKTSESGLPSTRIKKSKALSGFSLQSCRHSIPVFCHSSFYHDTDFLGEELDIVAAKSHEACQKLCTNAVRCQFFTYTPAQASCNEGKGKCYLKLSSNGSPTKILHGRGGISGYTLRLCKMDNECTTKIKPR
Assay: Factor XIa enzyme inhibition assay (IC50, purified enzyme)
Type: biochemical
Conditions: purified enzyme 0.25 nM, substrate 50 μM; read-out: Potency hFXIa IC50
Experimental: as §1
Potential inhibitors of Factor XIa were evaluated using the following assay.
S-2366, pyroGlu-Pro-Arg-7-methylaminocourin (AMC), available from CPC Scientific, Inc., is based on the substrate pyro-Glu-Pro-Arg-pNA, available from Diapharma Group, Inc. (Columbus, Ohio), where the p-nitroanaline group is replaced with 7-methylaminocoumarin (AMC).
The final concentration of the substrate in the assay was 50 μM, and the final concentration of the enzyme was 0.25 nM. Inhibitors were tested by serial dilution over an appropriate range to yield a dose response curve for determination of the inhibitors' IC50 value. The assay mixture was read every minute for 30 minutes in order to generate progress curves. The plates were read in a Spectramax m5 Multimode Plate Reader (Molecular Devices LLC, Sunnyvale, Calif.). Dose response curves were fit to Equation 1 below in which A is the maximum inhibition, B is the minimum inhibition, C is the IC50, and D is the Hill coefficient. [(A−B)/(1+(X/C)^D)]+B (Equation 1)

Row | SMILES | pIC50
25 | CCCC(CCC)NC(=O)N1C(=O)[C@H](Cc2ccnc(N)c2)[C@H]1C(=O)O [Example 52] | 7.00 to 8.00
26 | CCOC(=O)[C@@H]1C(Cc2ccnc(Cl)c2)C(=O)N1C(=O)N[C@H](C)c1ccc2c(c1)OC(F)(F)O2 (stereo partly shown) [Example 132] | 6.00 to 7.00
27 | CNC(=O)N1C(=O)[C@H](Cc2ccnc(N)c2)[C@H]1C(=O)O [Example 55] | < 6.00
28 | CS(=O)(=O)[C@@H]1[C@@H](Cc2ccnc(N)c2)C(=O)N1C(=O)NC(c1ccccc1)c1ccccc1 [Example 35] | 6.00 to 7.00
29 | Nc1cc(C[C@H]2C(=O)N(C(=O)N[C@@H](c3ccccc3)C(F)(F)F)[C@@H]2C(=O)O)ccn1 [Example 44] | > 8.00

Other lines, results leading:

Row | pIC50 | SMILES
30 | > 8.00 | C[C@@H](NC(=O)N1C(=O)[C@H](Cc2ccnc(N)c2)[C@H]1C(=O)O)c1cccc(OC(F)(F)F)c1 [Example 49]
31 | > 8.00 | CC(NC(=O)N1C(=O)[C@H](Cc2ccnc(N)c2)[C@H]1C(=O)O)c1ccc(OC(F)(F)F)cc1 (stereo partly shown) [Example 47]
32 | < 6.00 | CCO[C@@H]1[C@@H](Cc2ccnc(N)c2)C(=O)N1C(=O)NC(c1ccccc1)c1ccccc1 [Example 33]

Tested on: not listed separately
Assay: β-Lactam stability in rat plasma
Type: in vitro ADME
Conditions: normal rat plasma, room temperature; read-out: Rat Plasma Stability (T1/2; min)
Experimental: Normal rat plasma, stored at −80° C.
• 1. Place 6 μL of each compound into 0.5 mL microcentrifuge tubes or 96-well U-bottom, polypropylene microtiter plate • 2. Place 40 μL of acetonitrile (AcN) into 0.5 mL microcentrifuge tubes labeled 1-9 • 3. Add 114 μL of plasma to each compound • 4. Sample 10 μL of compound/plasma into AcN at 2, 10, 20, 30, 60, 90, 120, 240, and 480 min of incubation at room temperature • 5. Mix each time point after adding sample and place on ice. • 6. Centrifuge time points (12,000 rpm, 3 min), remove 15 μL of the supernatant and mix with 15 μL 0.1% TFA in a V-bottom microtiter plate. • 7. Place microtiter plate in autosampler of HPLC and analyze on Restek Pinnacle C18 column (2.1×100 mm). • 8. Generate extracted ion chromatogram for parent compound and parent compound+18 (H2O). Integrate extracted ion chromatograms (EIC) and plot % total peak area for parent and adduct versus time. Fit to a model of single phase exponential decay [Y=A0*exp(−k*x)+C]. T½ is equal to ln(2)/k.

Row | SMILES | half-life [h]
33 | CCCC(CCC)NC(=O)N1C(=O)[C@H](Cc2ccnc(N)c2)[C@H]1C(=O)O [Example 52] | > 1.67
34 | CCOC(=O)[C@@H]1C(Cc2ccnc(Cl)c2)C(=O)N1C(=O)N[C@H](C)c1ccc2c(c1)OC(F)(F)O2 (stereo partly shown) [Example 132] | < 1.67
35 | CNC(=O)N1C(=O)[C@H](Cc2ccnc(N)c2)[C@H]1C(=O)O [Example 55] | > 1.67
36 | CS(=O)(=O)[C@@H]1[C@@H](Cc2ccnc(N)c2)C(=O)N1C(=O)NC(c1ccccc1)c1ccccc1 [Example 35] | < 1.67
37 | Nc1cc(C[C@H]2C(=O)N(C(=O)N[C@@H](c3ccccc3)C(F)(F)F)[C@@H]2C(=O)O)ccn1 [Example 44] | > 1.67

Second part, the compound after the results:

Row | half-life [h] | SMILES
38 | > 1.67 | C[C@@H](NC(=O)N1C(=O)[C@H](Cc2ccnc(N)c2)[C@H]1C(=O)O)c1cccc(OC(F)(F)F)c1 [Example 49]
39 | > 1.67 | CC(NC(=O)N1C(=O)[C@H](Cc2ccnc(N)c2)[C@H]1C(=O)O)c1ccc(OC(F)(F)F)cc1 (stereo partly shown) [Example 47]
40 | > 1.67 | CCO[C@@H]1[C@@H](Cc2ccnc(N)c2)C(=O)N1C(=O)NC(c1ccccc1)c1ccccc1 [Example 33]
